The values below are quoted from earlier work in patent US20180298405A1, “METHODS AND COMPOSITIONS TO INCREASE HUMAN SOMATIC CELL NUCLEAR TRANSFER (SCNT) EFFICIENCY BY REMOVING HISTONE H3-LYSINE TRIMETHYLATION, AND DERIVATION OF HUMAN NT-ESC” (CHILDREN'S MEDICAL CENTER CORPORATION, priority 2015, published 2018).

Each structure is given as a SMILES string.

The subject of this series is SETDB1 H3K9me3 HMTase; H3K27me3 and H3K9me3. The following applies: Lee et al., 2013; cited from earlier work.

Regarding `Nc1nccc2c1ncn2[C@@H]1C=C(CO)[C@@H](O)[C@H]1O` [3-Deazaneplanocin A], the “effect on H3K27me3 and H3K9me3 levels” value is “reduced levels of both H3K27me3 and H3K9me3”; the “effect on SETDB1 H3K9me3 HMTase” value is on record as “decrease of SETDB1 H3K9me3 HMTase”.
